From patent US20140073631A1 (priority 2012, published 2014)
Values after ≈ are worked out from the molar mass of the structure shown. “Also recorded” adds a separate entry of the source. Read-outs that look alike come from different tables or passages of the source.

Experiments:
HIV-1 = experiment: CEM-SS microtiter antiviral XTT cytoprotection assay; type: cell-based
[1] = test system: HIV-1 ROJO (low passage clinical strain); experiment: PBMC assay, virus production by reverse transcriptase activity; type: cell-based; details: PBMCs
several bacteria = type: cell-based
Yersinia pestis = experiment: microbe, parasite or virus in culture; type: cell-based
Bacillus anthracis = experiment: microbe, parasite or virus in culture; type: cell-based
Francisella tularensis = experiment: microbe, parasite or virus in culture; type: cell-based
Burkholderia mallei = experiment: microbe, parasite or virus in culture; type: cell-based
[2] = test system: Burkholderia pseudomallei; experiment: microbe, parasite or virus in culture; type: cell-based
Mtb H37Rv (SRI 1345) [3] = experiment: microbe, parasite or virus in culture; type: cell-based, Mycobacterium tuberculosis
Mtb H37Rv (SRI 1345) [4] = experiment: microbe, parasite or virus in culture; type: cell-based, Mycobacterium tuberculosis; remark: listed apart in the source
[5] = test system: Mtb H37Rv (SRI 1345), nonreplicating persistence; type: cell-based, Mycobacterium tuberculosis
[6] = test system: Mtb H37Rv (SRI 1345) in murine J774 cells; type: cell-based, Mycobacterium tuberculosis
[7] = test system: fresh human peripheral blood mononuclear cells
[8] = test system: uninfected J774 macrophages; details: mouse
Y. pestis C092 = type: in vivo, BALB/c mice
F. tularensis SCHU S4 = test system: F. tularensis SCHU S4; set-up: species or system BALB/c mice; details: mouse, in vivo
H37Rv Colorado strain [9] = experiment: TB MIC Testing (Table 9); type: cell-based; details: Mycobacterium tuberculosis, read-out: MIC Value, Standard Test Strain H27Rv
H37Rv Colorado strain [10] = experiment: MBC Determination with H37Rv Colorado strain (Table 9); type: cell-based; details: Mycobacterium tuberculosis; Performed with H37Rv
TB = experiment: DMID TB MIC Results (Table 10); type: cell-based; details: Mycobacterium tuberculosis; solvent DMSO
B. anthracis = experiment: microbe, parasite or virus in culture; type: cell-based; details: Bacillus anthracis, read-out: MIC B. anthracis
B. mallei = experiment: microbe, parasite or virus in culture; type: cell-based; details: Burkholderia mallei, read-out: MIC B. mallei
B. pseudomallei = experiment: microbe, parasite or virus in culture; type: cell-based; details: Burkholderia pseudomallei, read-out: MIC B. pseudomallei
F. tularensis = experiment: microbe, parasite or virus in culture; type: cell-based; details: Francisella tularensis, read-out: MIC F. tularensis (Original Test)
Y. pestis = experiment: microbe, parasite or virus in culture; type: cell-based; details: Yersinia pestis, read-out: MIC Y. pestis
E. coli = experiment: microbe, parasite or virus in culture; type: cell-based; details: Escherichia coli, read-out: MIC E. coli
P. aeruginosa = experiment: microbe, parasite or virus in culture; type: cell-based; details: Pseudomonas aeruginosa, read-out: MIC P. aeruginosa
Plasmodium falciparum = experiment: Anti-malaria testing; type: cell-based
[11] = mouse, in vivo
Vero Cells = experiment: Cytotoxicity Assay, CellTiter-Glo Luminescent Cell Viability Assay

SMILES: N=C(NCCCCCCNC(=N)NC(=N)N1CCN(c2cc3c(cc2F)c(=O)c(C(=O)O)cn3C2CC2)CC1)NC(=N)N1CCN(c2cc3c(cc2F)c(=O)c(C(=O)O)cn3C2CC2)CC1 [BVS-10A]
- % RED. IN VIRAL CPC (HIV-1; 0.00032 nG/mL): 3%
- % RED. IN VIRAL CPC (HIV-1; 0.001 nG/mL): 4%
- % RED. IN VIRAL CPC (HIV-1; 0.0032 nG/mL): 1%
- % RED. IN VIRAL CPC (HIV-1; 0.01 nG/mL): 4%
- % RED. IN VIRAL CPC (HIV-1; 0.032 nG/mL): 7%
- % RED. IN VIRAL CPC (HIV-1; 0.1 nG/mL): 2%
- % RED. IN VIRAL CPC (HIV-1; 0.32 nG/mL): 4%
- % RED. IN VIRAL CPC (HIV-1; 1 nG/mL): 9%
- % RED. IN VIRAL CPC (HIV-1; 3.2 nG/mL): 2%
- % RED. IN VIRAL CPC (HIV-1; 10 nG/mL): 11%
- % RED. IN VIRAL CPC (HIV-1; 32 nG/mL): 100%
- % RED. IN VIRAL CPC (HIV-1; 100 nG/mL): 100%
- concentrations at which active [1]: greater than 3.2 μg/mL
- minimum inhibitory concentrations (MIC), range over strains (several bacteria): <0.128 to 12.8 µg/mL
- MIC Range (Yersinia pestis): 0.125 to 0.5 µg/mL
- MIC50 (Yersinia pestis; Yersinia pestis): 0.25 µg/mL (≈ 0.274 µM)
- MIC Range (Bacillus anthracis): 0.25 to 2 µg/mL
- MIC50 (Bacillus anthracis; Bacillus anthracis): 0.5 µg/mL (≈ 0.548 µM)
- MIC Range (Francisella tularensis): <0.03125 to 0.25 µg/mL
- MIC50 (Francisella tularensis; Francisella tularensis): 0.0625 µg/mL (≈ 0.0685 µM)
- MIC Range (Burkholderia mallei): 0.25 to 8 µg/mL
- MIC50 (Burkholderia mallei; Burkholderia mallei): 1 µg/mL (≈ 1.1 µM)
- MIC90 (Burkholderia mallei; Burkholderia mallei): ≥ 4 µg/mL
- MIC Range [2]: 4 to 64 µg/mL
- isolates with MICs<16 μg/ml [2]: 30%
- MIC50 ([2]; Burkholderia pseudomallei): 32 µg/mL (≈ 35 µM)
- MIC90 ([2]; Burkholderia pseudomallei): 64 µg/mL (≈ 70.1 µM)
- % inhibition at the MIC concentration (Mtb H37Rv (SRI 1345) [3]): 66%
- MIC (Mtb H37Rv (SRI 1345) [3]; Mycobacterium tuberculosis, H37RV, 168 h, read-out: MIC H37Rv): 6.25 µg/mL (≈ 6.85 µM)
- Colony Count (Mtb H37Rv (SRI 1345) [4]): TNTC
- LORA [5]: >6.25 µg/mL
- Microphage log reduction (low conc.) [6]: 1.14
- Microphage log reduction (mid conc.) [6]: 0.80
- % CELL VIABILITY (CEM-SS cells; 0.00032 nG/mL): 100%
- % CELL VIABILITY (CEM-SS cells; 0.001 nG/mL): 100%
- % CELL VIABILITY (CEM-SS cells; 0.0032 nG/mL): 100%
- % CELL VIABILITY (CEM-SS cells; 0.01 nG/mL): 100%
- % CELL VIABILITY (CEM-SS cells; 0.032 nG/mL): 100%
- % CELL VIABILITY (CEM-SS cells; 0.1 nG/mL): 100%
- % CELL VIABILITY (CEM-SS cells; 0.32 nG/mL): 100%
- % CELL VIABILITY (CEM-SS cells; 1 nG/mL): 100%
- % CELL VIABILITY (CEM-SS cells; 3.2 nG/mL): 100%
- % CELL VIABILITY (CEM-SS cells; 10 nG/mL): 100%
- % CELL VIABILITY (CEM-SS cells; 32 nG/mL): 100%
- % CELL VIABILITY (CEM-SS cells; 100 nG/mL): 100%
- TC 25% (CEM-SS cells; human): >100.00 UG/mL
- TC 50% (CEM-SS cells; human): >100.00 UG/mL
- TC 95% (CEM-SS cells; human): >100.00 UG/mL
- TOXICITY VALUES (XTT) % CC ([7]; 0.01 μg/ml): 103.2%
- TOXICITY VALUES (XTT) % CC ([7]; 0.032 μg/ml): 103.6%
- TOXICITY VALUES (XTT) % CC ([7]; 0.1 μg/ml): 97.1%
- TOXICITY VALUES (XTT) % CC ([7]; 0.32 μg/ml): 100.9%
- TOXICITY VALUES (XTT) % CC ([7]; 1 μg/ml): 96.2%
- TOXICITY VALUES (XTT) % CC ([7]; 3.2 μg/ml): 103.5%
- TOXICITY VALUES (XTT) % CC ([7]; 10 μg/ml): 108.3%
- TOXICITY VALUES (XTT) % CC ([7]; 32 μg/ml): 97.3%
- toxicity in PBMCs ([7]; 100 μg/mL): Toxicity was detected
- TOXICITY VALUES (XTT) % CC ([7]; 100 μg/ml): 51.2%
- MTT % viability (high conc.) [8]: 73%
- MTT % viability (low conc.) [8]: >100%
- MTT % viability (mid conc.) [8]: 63%

SMILES: C[C@@H]1COc2c(N3CCN(C(=N)NC(=N)N4CCN(c5c(F)cc6c(=O)c(C(=O)O)cn7c6c5OC[C@@H]7C)CC4)CC3)c(F)cc3c(=O)c(C(=O)O)cn1c23 [BVS-76D (XVII)]
- MIC90 (Yersinia pestis; Yersinia pestis): < 4 µg/mL
- MIC90 (Bacillus anthracis; Bacillus anthracis): ≤ 0.25 µg/mL
- MIC90 (Francisella tularensis; Francisella tularensis): < 4 µg/mL
- MIC90 (Burkholderia mallei; Burkholderia mallei): < 4 µg/mL
- survival (Y. pestis C092; 21 days): 100%
- protection of infected mice (Y. pestis C092; mouse, in vivo, 5 mg/kg/day): complete protection
- life span of the mice (average) (F. tularensis SCHU S4): 10 days
- outcome by day 13 (F. tularensis SCHU S4): all the mice in test Groups 3, 4 and 5 were dead
- protection of infected mice (F. tularensis SCHU S4): partial protection; also recorded: not significantly effective
- MIC (H37Rv Colorado strain [9]): 0.312 to 0.625 µg/mL (≈ 0.41 to 0.82 µM)
- MBC (H37Rv Colorado strain [10]): 0.625 µg/mL (≈ 0.82 µM)
- IC50 (TB): 1.1 µg/mL (≈ 1.44 µM)
- IC90 (TB): 1.19 µg/mL (≈ 1.56 µM)
- MIC (TB): 1.25 µg/mL (≈ 1.64 µM)
- MIC (B. anthracis): < 0.06 µg/mL
- MIC (B. mallei): 1 µg/mL (≈ 1.31 µM)
- MIC (B. pseudomallei): 2 to 4 µg/mL (≈ 2.63 to 5.25 µM)
- MIC (F. tularensis): < 0.06 µg/mL
- MIC (Y. pestis): < 0.06 µg/mL
- MIC (E. coli): < 0.06 µg/mL
- MIC (P. aeruginosa): 0.25 µg/mL (≈ 0.328 µM)
- IC50 (Plasmodium falciparum; average of Test 1 and Test 2, read-out: Average IC50): 2.72 µM
- IC50 (Plasmodium falciparum; read-out: IC50 Test 1): 4.02 µM
- IC50 (Plasmodium falciparum; read-out: IC50 Test 2): 1.43 µM
- symptoms in treated animals incl. unchallenged toxicity group [11]: some inflammation in the urinary, vaginal and rectal areas
- % Viability (Vero Cells; 0.01 μg/ml): 119%
- % Viability (Vero Cells; 0.02 μg/ml): 105%
- % Viability (Vero Cells; 5 μg/ml): 113%
- % Viability (Vero Cells; 10 μg/ml): 100%
- % Viability (Vero Cells; 20 μg/ml, vs […] DMSO controls): 96%
